The structures appear in SMILES notation. A value given as a limit tells only on which side of the number the result lay.

As usually defined, the IC50 is the concentration needed to halve the response being measured. A higher IC50 goes with weaker potency in that assay.

Chain of GCN2 (Q9P2K8 whole entry): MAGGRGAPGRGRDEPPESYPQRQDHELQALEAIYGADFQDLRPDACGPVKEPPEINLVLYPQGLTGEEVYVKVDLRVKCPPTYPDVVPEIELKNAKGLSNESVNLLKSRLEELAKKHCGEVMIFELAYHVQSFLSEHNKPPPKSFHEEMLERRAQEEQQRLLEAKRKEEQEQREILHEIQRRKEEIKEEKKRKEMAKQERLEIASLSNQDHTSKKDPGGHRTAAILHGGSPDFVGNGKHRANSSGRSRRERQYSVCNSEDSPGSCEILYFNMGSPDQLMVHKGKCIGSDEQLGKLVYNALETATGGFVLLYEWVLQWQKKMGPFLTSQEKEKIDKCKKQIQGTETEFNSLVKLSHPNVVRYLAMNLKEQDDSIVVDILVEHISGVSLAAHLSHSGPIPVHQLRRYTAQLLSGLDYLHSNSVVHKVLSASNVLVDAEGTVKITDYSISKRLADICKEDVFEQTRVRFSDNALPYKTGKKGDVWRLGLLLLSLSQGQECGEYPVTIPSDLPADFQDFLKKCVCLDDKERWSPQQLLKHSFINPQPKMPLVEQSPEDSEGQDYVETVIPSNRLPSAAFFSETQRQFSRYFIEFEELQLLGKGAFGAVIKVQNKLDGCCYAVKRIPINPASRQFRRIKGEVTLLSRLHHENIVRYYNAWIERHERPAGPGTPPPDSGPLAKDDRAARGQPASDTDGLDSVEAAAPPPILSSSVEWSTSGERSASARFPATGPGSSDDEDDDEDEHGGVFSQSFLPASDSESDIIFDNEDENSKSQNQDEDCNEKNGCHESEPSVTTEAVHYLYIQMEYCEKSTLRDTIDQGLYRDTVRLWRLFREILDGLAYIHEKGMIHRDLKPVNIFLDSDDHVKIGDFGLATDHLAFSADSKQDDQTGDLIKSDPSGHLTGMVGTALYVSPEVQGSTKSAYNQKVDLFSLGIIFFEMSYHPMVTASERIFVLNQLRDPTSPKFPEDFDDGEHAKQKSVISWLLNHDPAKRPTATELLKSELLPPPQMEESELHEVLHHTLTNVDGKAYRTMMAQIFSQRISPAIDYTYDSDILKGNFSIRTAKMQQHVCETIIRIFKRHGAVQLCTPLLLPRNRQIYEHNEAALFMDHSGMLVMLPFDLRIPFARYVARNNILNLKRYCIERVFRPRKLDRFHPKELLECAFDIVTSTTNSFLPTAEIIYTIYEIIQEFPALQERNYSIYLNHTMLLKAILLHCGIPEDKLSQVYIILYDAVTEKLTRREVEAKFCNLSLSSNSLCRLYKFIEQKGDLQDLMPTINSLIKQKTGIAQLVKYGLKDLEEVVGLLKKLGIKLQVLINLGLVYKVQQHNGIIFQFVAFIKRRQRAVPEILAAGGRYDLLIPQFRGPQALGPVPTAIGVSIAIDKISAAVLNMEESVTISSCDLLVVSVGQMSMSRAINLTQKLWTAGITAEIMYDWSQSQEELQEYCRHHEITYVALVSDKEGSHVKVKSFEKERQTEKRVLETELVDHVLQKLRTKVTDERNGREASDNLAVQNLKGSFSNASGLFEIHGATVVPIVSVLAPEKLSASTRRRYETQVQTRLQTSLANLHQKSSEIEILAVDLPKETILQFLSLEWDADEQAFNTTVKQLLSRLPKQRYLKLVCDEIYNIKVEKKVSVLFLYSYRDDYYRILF

One test concerns the target GCN2 (Homo sapiens, UniProt Q9P2K8). As to the kind of experiment: TR-FRET biochemical assay for inhibition of GCN2 (Example 106, for Example 1-4BB). The following applies: Table 8. On the technique in general: TR-FRET usually uses a lanthanide donor and a delayed reading to cut background.
In turn, `COc1ncc(Cl)cc1S(=O)(=O)Nc1ccc(F)c(-c2ccc3c(-c4ncc[nH]4)n[nH]c3c2F)c1` [Example 2J, 5-chloro-N-(4-fluoro-3-(7-fluoro-3-(1H-imidazol-2-yl)-1H-indazol-6-yl)phenyl)-2-methoxy-pyridine-3-sulfonamide] showed an IC50 of under 0.5 µM.

For `Cn1cc(S(=O)(=O)Nc2ccc(F)c(-c3ccc4c(-c5ncc[nH]5)n[nH]c4c3F)c2F)c(Cl)n1` [Example 2H, 3-chloro-N-(2,4-difluoro-3-(7-fluoro-3-(1H-imidazol-2-yl)-1H-indazol-6-yl)phenyl)-1-methyl-1H-pyrazole-4-sulfonamide], the IC50 lay within 0.5 to 2.5 µM.

In turn, `COc1cccc(S(=O)(=O)Nc2ccc(F)c(-c3ccc4c(-c5ncc[nH]5)n[nH]c4c3F)c2F)c1` [Example 2F, N-(2,4-difluoro-3-(7-fluoro-3-(1H-imidazol-2-yl)-1H-indazol-6-yl)phenyl)-3-methoxy-benzene-sulfonamide] showed an IC50 of under 0.5 µM.

`Cc1ccc(C)c(S(=O)(=O)Nc2ccc(F)c(-c3ccc4c(-c5ncc[nH]5)n[nH]c4c3F)c2F)c1` [Example 2BI, N-(2,4-difluoro-3-(7-fluoro-3-(1H-imidazol-2-yl)-1H-indazol-6-yl)phenyl)-2,5-dimethylbenzenesulfonamide] returned a concentration for half-maximal inhibition (IC50) of under 0.5 µM.

The same test, now with this note: Table 9.
Consider `COc1ncncc1S(=O)(=O)Nc1ccc(F)c(-c2ccc3c(-c4ncc[nH]4)n[nH]c3c2F)c1F` [Example 3CX, N-(2,4-difluoro-3-(7-fluoro-3-(1H-imidazol-2-yl)-1H-indazol-6-yl)phenyl)-4-methoxypyrimidine-5-sulfonamide], for which the IC50 was 0.5 to 2.5 µM.

`COc1ncc(F)cc1S(=O)(=O)Nc1ccc(F)c(-c2ccc3c(C(=O)Nc4ccc(C)nc4)n[nH]c3c2F)c1F` [Example 3BX, 6-(2,6-difluoro-3-((5-fluoro-2-methoxypyridine)-3-sulfonamido)phenyl)-7-fluoro-N-(6-methylpyridin-3-yl)-1H-indazole-3-carboxamide]: the IC50 is under 0.5 µM.

Compound `COc1ncc(F)cc1S(=O)(=O)Nc1ccc(F)c(-c2ccc3c(C(=O)Nc4cnn(C)c4)n[nH]c3c2F)c1F` [Example 3Z, 6-(2,6-difluoro-3-((5-fluoro-2-methoxypyridine)-3-sulfonamido)phenyl)-7-fluoro-1H-(1-methyl-1H-pyrazol-4-yl)-1H-indazole-3-carboxamide] came in with a 50% inhibitory concentration (IC50) of under 0.5 µM.

Compound `COc1ncc(Cl)cc1S(=O)(=O)Nc1ccc(F)c(-c2ccc3c(C(=O)Nc4cnoc4)n[nH]c3c2F)c1F` [Example 3CV, 6-(3-((5-chloro-2-methoxy-pyridine)-3-sulfonamido)-2,6-difluorophenyl)-7-fluoro-N-(isoxazol-4-yl)-1H-indazole-3-carboxamide] showed an IC50 of under 0.5 µM.

`COc1ncc(F)cc1S(=O)(=O)Nc1cccc(-c2ccc3c(-c4ncc[nH]4)n[nH]c3c2Cl)c1F` [Example 18, N-(3-(7-Chloro-3-(1H-imidazol-2-yl)-1H-indazol-6-yl)-2-fluorophenyl)-5-fluoro-2-methoxypyridine-3-sulfonamide]: the IC50 was 0.5 to 2.5 µM.

Consider `COc1ncncc1S(=O)(=O)Nc1ccc(F)c(-c2ccc3c(C(=O)NCCCO)n[nH]c3c2F)c1F` [Example 3CL, 6-(2,6-difluoro-3-((4-methoxypyrimidine)-5-sulfonamido)phenyl)-7-fluoro-N-(3-hydroxypropyl)-1H-indazole-3-carboxamide], for which the IC50 is over 10 µM.

Regarding `COc1ncc(C#N)cc1S(=O)(=O)Nc1ccc(F)c(-c2ccc3c(-c4ncc[nH]4)n[nH]c3c2F)c1F` [Example 3DJ, 5-cyano-N-(2,4-difluoro-3-(7-fluoro-3-(1H-imidazol-2-yl)-1H-indazol-6-yl)phenyl)-2-methoxypyridine-3-sulfonamide], the IC50 was under 0.5 µM.

The compound `Cc1ncc(F)cc1S(=O)(=O)Nc1ccc(F)c(-c2ccc3c(C(=O)NCCCO)n[nH]c3c2F)c1F` [Example 3AZ, 6-(2,6-difluoro-3-((5-fluoro-2-methylpyridine)-3-sulfonamido)phenyl)-7-fluoro-N-(3-hydroxypropyl)-1H-indazole-3-carboxamide] had an IC50 of under 0.5 µM.

The record behind these values is patent US20220388964A1 (HiberCell, Inc., priority 2019, published 2022).
